Consider five molecules from patent US8987195B2 (priority 2012, dated 2015).

The subject of test [1] is HCV genotype 1b replicon. The test is described as follows: HCV replicon assay, genotype 1b replicon EC50. The test is classed as cell-based, Hepatitis C virus. Conditions: Hepatitis C virus, HCV replicon, genotype 1b; read-out: EC50 [gt-1b]. An outline of the steps: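 Readout was replicon RNA copy number, by 32P-probe protection or TaqMan normalized to cellular cyclophilin A RNA, or luciferase activity for luciferase:Neo^r fusion lines. Cells were exposed to serially diluted compound for 24-48 hours without G418, then washed and lysed. EC50 derived from four-parameter fit relative to DMSO.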
Background: A replicon is a self-replicating genome or part of one, used to study replication in cells.

Test [2] has as its target HCV NS3/4A protease genotype 1b (Hepatitis C virus genotype 1b, UniProt P26663). Kind of test: HCV NS3/4A protease time-resolved fluorescence (TRF) assay, Ki against genotype 1b. The test is classed as biochemical. The settings on record: IC50 [gt-1b], NS3/4A protease TRF assay, genotype 1b enzyme 0.2 nM. A digest of the protocol:
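Time-resolved fluorescence readout of NS3/4A cleavage of 25 nM europium-labelled peptide over 2.5 h at room temperature, enzyme levels set for signal/background 10–30 (0.2, 0.4, 0.025 nM for 1b, A156T, 3a). Ki by IC50=Ki(1+[S]/KM).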

A word on the EC50: it is the concentration needed to bring the measured effect to its halfway point. What is called IC50 is the midpoint of a concentration-inhibition curve.

As to `COc1ccc2nc(C)c3c(c2c1)CC[C@]1(C[C@H]2C(=O)N[C@]4(C(=O)NS(=O)(=O)C5(C)CC5)C[C@H]4/C=C\CCCCC[C@H](Nc4cccc(C)n4)C(=O)N2C1)O3` [Example 463, (2R,6S,12Z,13aS,14aR,16aS)-9′-methoxy-5′-methyl-N-[(1-methylcyclopropyl)sulfonyl]-6-[(6-methylpyridin-2-yl)amino]-5,16-dioxo-1,1′,2′,6,7,8,9,10,11,13a,14,15,16,16a-tetradecahydrospiro[cyclopropa[e]pyrrolo[1,2-a][1,4]diazacyclopentadecine-2,3′-pyrano[2,3-c]quinoline]-14a(5H)-carboxamide], the concentration for a half-maximal effect (EC50) in test [1] stood at 2.16 nM. Moreover, in test [2], half-maximal inhibition (IC50) was put at 0.057 nM.
The corresponding values for `Cc1nc2cc(F)ccc2c2c1OC1(CC2F)C[C@H]2C(=O)N[C@]3(C(=O)NS(=O)(=O)C4(C)CC4)C[C@H]3/C=C\CCCCC[C@H](NC(=O)OC(C)(C)C)C(=O)N2C1` (stereo partly drawn) [Example 464, tert-butyl [(6S,12Z,13aS,14aR,16aS)-1′,8′-difluoro-5′-methyl-14a-{[(1-methylcyclopropyl)sulfonyl]carbamoyl}-5,16-dioxo-1,1′,2′,5,6,7,8,9,10,11,13a,14,14a,15,16,16a-hexadecahydrospiro[cyclopropa[e]pyrrolo[1,2-a][1,4]diazacyclopentadecine-2,3′-pyrano[2,3-c]quinolin]-6-yl]carbamate] are 15 nM and 1.03 nM.
Consider `CCc1nc2ccc(OC)cc2c2c1O[C@]1(CC2)C[C@H]2C(=O)N[C@]3(C(=O)NS(=O)(=O)C4(C)CC4)C[C@H]3/C=C\CCCCC[C@H](NC(=O)c3ccc(C)s3)C(=O)N2C1` [Example 466, (2R,6S,12Z,13aS,14aR,16aS)-5′-ethyl-9′-methoxy-N-[(1-methylcyclopropyl)sulfonyl]-6-{[(5-methylthiophen-2-yl)carbonyl]amino}-5,16-dioxo-1,1′,2′,6,7,8,9,10,11,13a,14,15,16,16a-tetradecahydrospiro[cyclopropa[e]pyrrolo[1,2-a][1,4]diazacyclopentadecine-2,3′-pyrano[2,3-c]quinoline]-14a(5H)-carboxamide], for which the 50% effective concentration (EC50) in test [1] came out at 1.62 nM. In test [2], this molecule gave an IC50 of 0.041 nM.
For `CCc1nc2ccc(OC)cc2c2c1O[C@]1(CC2)C[C@H]2C(=O)N[C@]3(C(=O)NS(=O)(=O)C4(C)CC4)C[C@H]3/C=C\CCCCC[C@H](NC(=O)c3ccn(CC)n3)C(=O)N2C1` [Example 467, (2R,6S,12Z,13aS,14aR,16aS)-5′-ethyl-6-{[(1-ethyl-1H-pyrazol-3-yl)carbonyl]amino}-9′-methoxy-N-[(1-methylcyclopropyl)sulfonyl]-5,16-dioxo-1,1′,2′,6,7,8,9,10,11,13a,14,15,16,16a-tetradecahydrospiro[cyclopropa[e]pyrrolo[1,2-a][1,4]diazacyclopentadecine-2,3′-pyrano[2,3-c]quinoline]-14a(5H)-carboxamide], the EC50 in test [1] came out at 4.71 nM. The molecule further registered a concentration for half-maximal inhibition (IC50) in test [2] of 0.028 nM.
On the same counts, the results for `CCc1nc2ccc(OC)cc2c2c1O[C@]1(CC2)C[C@H]2C(=O)N[C@]3(C(=O)NS(=O)(=O)C4(C)CC4)C[C@H]3/C=C\CCCCC[C@H](NC(=O)c3ccn(C(F)F)n3)C(=O)N2C1` [Example 468, (2R,6S,12Z,13aS,14aR,16aS)-6-({[1-(difluoromethyl)-1H-pyrazol-3-yl]carbonyl}amino)-5′-ethyl-9′-methoxy-N-[(1-methylcyclopropyl)sulfonyl]-5,16-dioxo-1,1′,2′,6,7,8,9,10,11,13a,14,15,16,16a-tetradecahydrospiro[cyclopropa[e]pyrrolo[1,2-a][1,4]diazacyclopentadecine-2,3′-pyrano[2,3-c]quinoline]-14a(5H)-carboxamide] are 7.15 nM and 0.031 nM.
